Test system: T1, LpUGT95
T1 construct: cloned from cDNA into pMAL-c2x (MBP fusion vector), expressed in E. coli, purified recombinant
Assay: UPLC product formation, Hyper […] fit
Type: biochemical, Lysionotus pauciflorus
Settings: 2 mM UDP-glucose as sugar donor, 10 mM DTT, 50 mM Tris-HCl pH 7.4, 30 °C, 30 min

COc1ccc(-c2cc(=O)c3c(O)c(OC)c(O)c(OC)c3o2)cc1 [nevadensin, 5,7-dihydroxy-6,8,4'-trimethoxyflavone]
Km: 596 µM
